Reference: patent publication US20100040711A1, “ZINC-CARNOSINE -BASED TREATMENT FOR NON ULCER (FUNCTIONAL ) DYSPEPSIA & IRRITABLE BOWEL SYNDROME IN HUMANS AND OTHER ANIMALS” (priority 2008, published 2010)

How the values were obtained:
[1] = test system: post-infectious IBS; conditions: recent study, Dunlap et al. 2003; cited from earlier work
[2] = test system: human MCT3-E1 cells (osteoblasts); conditions: cited from earlier work
[3] = test system: functional dyspepsia or irritable bowel syndrome; assay: Veterinary case reports: dogs diagnosed with functional dyspepsia or irritable bowel syndrome given zinc-carnosine; format: in vivo; conditions: dog, 30 mg/day
Excerpt: Ellie, a three year old, sixteen pound West Highland Terrier presented to vet with visible discomfort, loose stools and intermittent diarrhea. […] The diagnosis of functional dyspepsia or irritable bowel syndrome made.
Katelyn, a six year old, fourteen pound Boston Terrier presented to vet with visible discomfort, diarrhea, vomiting and inappetence. […] Blood tests indicated no abnormalities and a stool samples indicated the dog was parasite free. The diagnosis of functional dyspepsia or irritable bowel syndrome made.

[4] = test system: water immersion stress; conditions: cited from earlier work
[5] = test system: human umbilical vein endothelial cells; conditions: cited from earlier work
[6] = test system: human foreskin fibroblast cells; conditions: cited from earlier work
[7] = test system: functional dyspepsia or irritable bowel syndrome; assay: Veterinary case report: cat diagnosed with functional dyspepsia or irritable bowel syndrome given zinc-carnosine; format: in vivo; conditions: 15 mg BID
Excerpt: A five year old, eight pound Siamese cat presented to vet with severe diarrhea, severe visible discomfort, inappetence and losing weight. […] Blood tests indicated no abnormalities and a stool samples indicated the cat was parasite free. The diagnosis of functional dyspepsia or irritable bowel syndrome made.

[8] = test system: gastric ulcer; conditions: clinical trials, versus placebo; cited from earlier work
[9] = test system: HCl-ethanol gastric damage; conditions: cited from earlier work
[10] = test system: TNBS model of colitis; conditions: cited from earlier work
[11] = based on current evidence; cited from earlier work

| Molecule | efficacy for treating post-infectious IBS [1] | stimulation of growth (proliferation) [2] | improvement of conditions (discomfort, diarrhea, vomiting, inappetence) ([3]; course during treatment) | symptoms at check up ([3]; four week check up) | improvement of condition (discomfort, loose stools, diarrhea) ([3]; two week and four week follow-up visits) | effect in animal model of gut ulceration and gross inflammation [4] | stimulation of growth (proliferation) [5] | stimulation of growth (proliferation) [6] | symptoms at check up ([7]; four week check up) | improvement of conditions (diarrhea, discomfort, inappetence, weight loss) ([7]; within seven days) | effect in treatment of gastric ulcer [8] | effect in animal model of gut ulceration and gross inflammation [9] | effect in animal model of gut ulceration and gross inflammation [10] | side effects [11] |
| --- | --- | --- | --- | --- | --- | --- | --- | --- | --- | --- | --- | --- | --- | --- |
| C[C@]12C=CC(=O)C=C1CC[C@@H]1[C@@H]2[C@@H](O)C[C@@]2(C)[C@H]1CC[C@]2(O)C(=O)CO [predinisolone] | ineffective |  |  |  |  |  |  |  |  |  |  |  |  |  |
| Zinc-Carnosine |  | able to stimulate growth (proliferation) | conditions improved on a daily basis | No further symptoms | significant improvement | beneficial effects | able to stimulate growth (proliferation) | able to stimulate growth (proliferation) | No further symptoms | conditions improved significantly | beneficial effect above placebo | beneficial effects | beneficial effects | little or no side effects |
